Data as given in US9889183B2, “PKC activators and anticoagulant in regimen for treating stroke” (BLANCHETTE ROCKEFELLER NEUROSCIENCES INSTITUTE, priority 2010, dated 2018).
Values belong to the molecule of their own block, whether it stands above or below them.

What was measured:
Aβ in COS cells = details: 1 μM, cultured COS cells, 8 hours; cited from earlier work
[1] = test system: PKC in H19-7/IGF-IR cells; assay: PKC activity over time in rat H19-7/IGF-IR hippocampal cells; assay type: cell-based; details: treated cells, 8 hours; data not shown
Protocol: Cell culture. Rat hippocampal H19-7/IGF-IR cells (ATCC, Manassas, Va.) were plated onto poly-L-lysine coated plates and grown at 35° C. in DMEM/10% FCS for several days until about 50% coverage was obtained. The cells were then induced to differentiate into a neuronal phenotype by replacing the medium with 5 ml N2 medium containing 10 ng/ml basic fibroblast growth factor at 39° C. and grown in T-75 flasks at 37° C. Human SH-SY5Y neuroblastoma cells (ATCC) were cultured in 45% F12K/45% MEM/10% FCS. Mouse N2A neuroblastoma cells were cultured in DMEM/10% FCS without glutamine. Rat hippocampal neurons from 18-day-old embryonic Sprague Dawley rat brains were plated on 12- or 96-well plates coated with poly-D-lysine (Sigma-Aldrich, St. Louis, Mo.) in B-27 neurobasal medium containing 0.5 mM glutamine and 25 μM glutamate (Invitrogen, Carlsbad, Calif.) and cultured for three days in the medium without glutamate. The neuronal cells were grown under 5% CO2 in an incubator maintained at 37° C. for 14 days.
(§1) Protein kinase C assay. Rat hippocampal cells were cultured and scraped in 0.2 ml homogenization buffer (20 mM Tris-HCl, pH 7.4, 50 mM NaF, 1 μg/ml leupeptin, and 0.1 mM PMSF) and homogenized by sonication a Marsonix microprobe sonicator (5 sec, 10 W). To measure PKC, 10 μl of cell homogenate or purified PKC isozyme (purchased from Calbiochem) was incubated for 15 min at 37° C. in the presence of 10 μM histones, 4.89 mM CaCl2, 1.2 μg/μl phosphatidyl-L-serine, 0.18 μg/μl 1,2-dioctanoyl-sn-glycerol, 10 mM MgCl2, 20 mM HEPES (pH 7.4), 0.8 mM EDTA, 4 mM EGTA, 4% glycerol, 8 μg/ml aprotinin, 8 μg/ml leupeptin, and 2 mM benzamidine. […][^γ32P]ATP was added and ^32P-phosphoprotein formation was measured by adsorption onto phosphocellulose as described previously. Nelson and Alkon, J. Neurochemistry (1995), vol. 65, pp. 2350-2357. For measurements of activation by BR-101 (DCP-LA) and similar compounds. PKC activity was measured in the absence of diacylglycerol and phosphatidylserine and PKC δ, ε, η, and μ were measured in the absence of added EGTA and CaCl2, as described by Kanno et al. (J. Lipid Res. 2006, vol. 47, pp. 1146-1150). Low concentrations of Ca^2+ are used because high Ca^2+ interacts with the PKC phosphatidylserine binding site and prevents activation. For measurements of bryostatin activation, 1,2-diacylglycerol was omitted unless otherwise stated.
PKC activators that bind to the diacylglycerol binding site, including bryostatin, gnidimacrin, and phorbol esters, produce a transient activation of PKC activity, followed by a prolonged downregulation. Nelson et al., Trends in Biochem. Sci. (2009), vol. 34, pp. 136-145. This was confirmed in cultured rat hippocampal cells. Incubation of rat H19-7/IGF-IR cells with (0.04 nM and 0.2 nM) bryostatin produced a 2-fold activation that lasted 30 min, followed by a 20% downregulation that returned to baseline by 24 hours (data not shown). […] This sustained activation was only observed in primary neurons.

PKCε = biological target: T1, PKCε (Homo sapiens, UniProt Q02156); assay: PKC assay with purified PKCε; assay type: biochemical; details: for activation of purified PKCε (in words): FIG. 7, methyl esters
T1 construct: purchased Calbiochem
T1 sequence (Q02156 1-737): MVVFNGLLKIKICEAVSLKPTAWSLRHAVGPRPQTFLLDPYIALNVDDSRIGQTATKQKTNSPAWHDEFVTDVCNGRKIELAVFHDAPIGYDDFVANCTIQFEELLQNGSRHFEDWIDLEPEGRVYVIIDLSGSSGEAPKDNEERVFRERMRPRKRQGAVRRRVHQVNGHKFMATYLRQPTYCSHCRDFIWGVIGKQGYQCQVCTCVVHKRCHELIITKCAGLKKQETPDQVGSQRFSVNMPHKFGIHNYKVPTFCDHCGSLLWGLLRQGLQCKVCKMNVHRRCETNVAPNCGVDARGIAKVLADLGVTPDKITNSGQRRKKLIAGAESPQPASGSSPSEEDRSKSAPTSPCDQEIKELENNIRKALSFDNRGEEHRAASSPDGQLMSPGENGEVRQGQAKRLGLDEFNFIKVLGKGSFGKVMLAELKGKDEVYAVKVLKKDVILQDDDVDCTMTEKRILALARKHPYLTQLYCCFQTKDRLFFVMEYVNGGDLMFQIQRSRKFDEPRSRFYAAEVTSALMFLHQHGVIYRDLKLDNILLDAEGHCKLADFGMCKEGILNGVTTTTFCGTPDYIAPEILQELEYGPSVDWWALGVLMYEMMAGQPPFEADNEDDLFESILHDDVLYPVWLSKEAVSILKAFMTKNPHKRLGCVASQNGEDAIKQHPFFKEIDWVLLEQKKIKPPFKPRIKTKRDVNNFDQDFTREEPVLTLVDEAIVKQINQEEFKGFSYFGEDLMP
Protocol: PKC assay. Recombinant PKC (1 ng of PKCα or PKCε isoform) was mixed with BR-101 (DCP-LA) in the presence of 10 micromolar histones, 5 mM CaCl2, 1.2 μg/μl phosphatidyl-L-serine, 0.18 μg/μl 1,2-dioctanoyl-sn-glycerol (DAG), 10 mM MgCl2, 20 mM HEPES (pH 7.4), 0.8 mM EDTA, 4 mM EGTA, 4% glycerol, 8 μg/ml aprotinin, 8 μg/ml leupeptin, and 2 mM benzamidine. 0.5 micro Ci[^γ32P]ATP was added. The incubation mixture was incubated for 15 min at 37 degrees in a total volume of 10 microliters. The reaction was stopped by spotting the reaction mixtures on 1×2 cm strips of cellulose phosphate paper (Whatman P81) and immediately washing twice for 1 hr in 0.5% H3PO4. The cellulose phosphate strips were counted in a scintillation counter. In some experiments, phosphatidylserine, diacylglycerol, and/or calcium were removed.
DHA methyl ester was purchased from Cayman Chemical (Ann Arbor, Me.). PKC isozymes were from Calbiochem (San Diego, Calif.). Purified PKCε was purchased from Calbiochem.
as §1
To determine their PKC isozyme specificity, fatty acid derivatives were preincubated with purified PKC for five minutes and the PKC activity was measured radiometrically.

[2] = test system: squamous cell carcinoma and melanoma; details: used topically; cited from earlier work
[3] = test system: global cerebral ischemia/hypoxia in rats; assay: Global ischemia model, water maze (Examples 10-11); assay type: in vivo, rat
Protocol: Rats (male, Wistar, 200-225 g) were randomly divided into 6 groups (8 each) and housed for 1 week before experimentation. […] The global ischemia model used to induce vascular memory impairment was two-vessel occlusion combined with a short term systemic hypoxia. Ligation of the bilateral common carotid arteries was performed under anesthesia (pentobarbital, 60 mg/kg, i.p.). After a one-week recovery from the surgery, rats were exposed to 14-min hypoxia (5% oxygen in a glass jar). Control rats (sham operated and vehicle controls) were subjected to the same incision to isolate both common carotid arteries and to 14-min air (in the glass jar). Body temperature was kept at 37-37.5° C. using a heating light source during the surgical procedure and until the animals were fully recovered.

PKC = details: cited from earlier work
[4] = non-ischemic rats, same regimens

Molecule: CCCC(=O)O[C@@H]1[C@@H](C)[C@@]2(O)[C@@H](C=C(CO)C[C@]3(O)C(=O)C(C)=C[C@@H]23)[C@@H]2C(C)(C)[C@]12OC(=O)CCC [PdBu]
effect on Aβ (Aβ in COS cells): increase in Aβ

Molecule: CCCCCCCCCCCCCC(=O)O[C@@H]1[C@@H](C)[C@@]2(O)[C@@H](C=C(CO)C[C@]3(O)C(=O)C(C)=C[C@@H]23)[C@@H]2C(C)(C)[C@]12OC(C)=O [PMA, phorbol 12-myristate 13-acetate]
PKC activity at 8 hours (downregulation) [1]: strongly downregulated

Molecule: CCCCCC1OC1C/C=C\CCCCCCCC(=O)OC (stereo in doubt) [BR-117, vernolic acid methyl ester]
effect on PKC (PKCε; FIG. 8): little or no effect

Molecule: C/C=C(/C)C(=O)O[C@H]1C(C)=C[C@]23C(=O)[C@@H](C=C(CO)[C@@H](O)[C@]12O)[C@H]1[C@@H](C[C@H]3C)C1(C)C [Ingenol-3-angelate]
antitumor activity [2]: exhibits antitumor activity

Molecule: Cc1ccc(OCC(=O)O)c(OCC(=O)O)c1 [MCDA, 4-Methylcatechol-diacetic acid]
water maze spatial learning, ischemic treated vs ischemic rats ([3]; bryostatin-1 20 μg/m^2 i.v. 2 doses/week, 10 doses, MCDA 1.0 mg/kg i.p. daily 5 weeks, start 24 hours after hypoxia): improved the learning | target quadrant ratio in probe test, drug-only vs control rats [3, 4]: no differences | water maze spatial learning, drug-only vs control rats [3, 4]: no differences | target quadrant ratio in probe test, ischemic treated vs control rats ([3]; same regimens): no differences | target quadrant ratio in probe test, ischemic treated vs ischemic rats ([3]; same regimens): group differences | water maze spatial learning, ischemic treated vs control rats ([3]; same regimens): remained significant

Molecule: CCCCCCCC(=O)O[C@H]1/C(=C/C(=O)OC)C[C@H]2C[C@H](CO)OC(=O)C[C@H](O)C[C@@H]3CCC[C@H](C[C@@H]4CCO[C@H](/C=C/C(C)(C)[C@]1(O)O2)O4)O3 [Analog 1]
affinity for PKC (in words) (PKC): highest affinity

The next lines start with results.

effect on PKC (PKCε; FIG. 8): little or no effect
Molecule: CCC1CC1CC1CC1CC1CC1CCCCCCCCO (stereo not shown) [BR-104, linolenic alcohol tricyclopropane]

effect on PKC (PKCε; FIG. 8): little or no effect
Molecule: CCCCCC1CC1CC1CC1CCCCCCCCO (stereo not shown) [BR-105, linoleic alcohol dicyclopropane]

concentrations at which PKCε is inhibited (PKCε; FIG. 8): above 1 μM
Molecule: CCCCC[C@H]1O[C@H]1CC1CC1CCCCCCCC(=O)OC (stereo partly shown) [BR-109, vernolic acid methyl ester cyclopropane]

concentration needed to activate PKC relative to BR-101 (DCP-LA) (PKCε): approximately 100 times lower
Molecule: CCCCCC1CC1CC1CC1CC1CC1CC1CC1CCCC(=O)OC (stereo not shown) [BR-115, methyl 4-(2-((2-((2-((-pentylcyclopropyl)methyl)cyclopropyl)methyl)cyclopropyl)methyl)cyclopropyl)butanoate methyl ester]
activation of purified PKCε (in words) (PKCε): activated purified PKCε to a similar extent

effect on PKC (PKCε; FIG. 8): little or no effect
Molecule: epoxystearic acid [BR-116]

concentration needed to activate PKC relative to BR-101 (DCP-LA) (PKCε): approximately 100 times lower
Molecule: CCC1CC1CC1CC1CC1CC1CC1CC1CC1CC1CCCC(=O)OC (stereo not shown) [BR-114]
activation of purified PKCε (in words) (PKCε): activated purified PKCε to a similar extent
